Assay results as given in ChEMBL document CHEMBL1144662, “Requirement of beta-alanine components in sequence-specific DNA alkylation by pyrrole-imidazole conjugates with seven-base pair recognition” (Bioorg Med Chem, 2008).
Active and inactive are the calls of the source. The rule behind the calls is not given here.

Columns and labels:
[1] = Alkylation of plasmid DNA at 5'-AGCTCCA-3' site in 5'-Texas Red labeled 202-bp DNA fragment after 15 hrs
[2] = Alkylation of plasmid DNA at 5'-AGCACCA-3' site in 5'-Texas Red labeled 202-bp DNA fragment after 15 hrs
[3] = Alkylation of plasmid DNA at 5'-ACAACCA-3' site in 5'-Texas Red labeled 202-bp DNA fragment after 15 hrs
[4] = Alkylation of plasmid DNA at 5'-ACTACCA-3' site in 5'-Texas Red labeled 202-bp DNA fragment after 15 hrs
[5] = Alkylation of plasmid DNA in 5'-Texas Red labeled 202-bp DNA fragment upto 5 uM after 15 hrs

Row | Compound | Activity [1] | Activity [2] | Activity [3] | Activity [4] | Activity [5]
1 | CC(=O)Nc1cn(C)c(C(=O)Nc2cn(C)c(C(=O)NCCC(=O)Nc3cn(C)c(C(=O)Nc4cc(C(=O)NCCCC(=O)Nc5cn(C)c(C(=O)Nc6cc(C(=O)NCCC(=O)Nc7ccc8[nH]c(C(=O)N9CC(CCl)c%10c9cc(O)c9ccccc%109)cc8c7)n(C)c6)n5)n(C)c4)n3)n2)n1 (stereo unspecified) | Active | Active |  |  | 
2 | CC(=O)Nc1cn(C)c(C(=O)Nc2cn(C)c(C(=O)Nc3cc(C(=O)NCCC(=O)Nc4cn(C)c(C(=O)NCCCC(=O)Nc5cc(C(=O)Nc6cc(C(=O)Nc7cc(C(=O)Nc8ccc9[nH]c(C(=O)N%10CC(CCl)c%11c%10cc(O)c%10ccccc%11%10)cc9c8)n(C)c7)n(C)c6)n(C)c5)n4)n(C)c3)n2)n1 (stereo unspecified) |  |  | Active | Active | 
3 | CC(=O)Nc1cn(C)c(C(=O)Nc2cn(C)c(C(=O)Nc3cc(C(=O)Nc4cc(C(=O)Nc5cn(C)c(C(=O)NCCCC(=O)Nc6cc(C(=O)Nc7cc(C(=O)Nc8cc(C(=O)Nc9ccc%10[nH]c(C(=O)N%11CC(CCl)c%12c%11cc(O)c%11ccccc%12%11)cc%10c9)n(C)c8)n(C)c7)n(C)c6)n5)n(C)c4)n(C)c3)n2)n1 (stereo unspecified) |  |  | Active | Active | 
4 | CC(=O)Nc1cn(C)c(C(=O)Nc2cn(C)c(C(=O)Nc3cc(C(=O)Nc4cn(C)c(C(=O)Nc5cc(C(=O)NCCCC(=O)Nc6cn(C)c(C(=O)Nc7cc(C(=O)NCCC(=O)Nc8ccc9[nH]c(C(=O)N%10CC(CCl)c%11c%10cc(O)c%10ccccc%11%10)cc9c8)n(C)c7)n6)n(C)c5)n4)n(C)c3)n2)n1 (stereo unspecified) |  |  |  |  | inactive
5 | CC(=O)Nc1cn(C)c(C(=O)Nc2cn(C)c(C(=O)NCCC(=O)Nc3cn(C)c(C(=O)Nc4cc(C(=O)NCCCC(=O)Nc5cn(C)c(C(=O)Nc6cc(C(=O)Nc7cc(C(=O)Nc8ccc9[nH]c(C(=O)N%10CC(CCl)c%11c%10cc(O)c%10ccccc%11%10)cc9c8)n(C)c7)n(C)c6)n5)n(C)c4)n3)n2)n1 (stereo unspecified) | Active | Active |  |  | 
6 | CC(=O)Nc1cn(C)c(C(=O)Nc2cn(C)c(C(=O)Nc3cc(C(=O)NCCC(=O)Nc4cn(C)c(C(=O)NCCCC(=O)Nc5cc(C(=O)NCCC(=O)Nc6cc(C(=O)Nc7ccc8[nH]c(C(=O)N9CC(CCl)c%10c9cc(O)c9ccccc%109)cc8c7)n(C)c6)n(C)c5)n4)n(C)c3)n2)n1 (stereo unspecified) |  |  | Active | Active | 
